From patent publication US20150166528A1, “Pesticidal methods using substituted 3-pyridyl thiazole compounds and derivatives for combating animal pests” (BASF SE, priority 2012, published 2015)

Legend:
Format in all cases: in vivo
[1] = system: Aphis Craccivora; assay: Cowpea aphid (Aphis craccivora) potted cowpea plant spray test; details: sprayed potted cowpea plants, population reduction assessed after 24, 72 and 120 hours, read-out: mortality in comparison with untreated controls
Method: The active compound was dissolved at the desired concentration in a mixture of 1:1 (vol:vol) distilled water:acetone. The test solution was prepared at the day of use.
Potted cowpea plants colonized with approximately 100-150 aphids of various stages were sprayed after the pest population has been recorded. Population reduction was assessed after 24, 72, and 120 hours.

[2] = system: Myzus persicae; assay: Green peach aphid (Myzus persicae) artificial diet test, systemic; details: 72 h, in liquid artificial aphid diet, adult aphids, 3 days, read-out: mortality in comparison with untreated controls
Source text: For evaluating control of green peach aphid (Myzus persicae) through systemic means the test unit consisted of 96-well-microtiter plates containing liquid artificial diet under an artificial membrane.
The compounds were formulated using a solution containing 75% v/v water and 25% v/v DMSO. Different concentrations of formulated compounds were pipetted into the aphid diet, using a custom built pipetter, at two replications.
After application, 5-8 adult aphids were placed on the artificial membrane inside the microtiter plate wells. The aphids were then allowed to suck on the treated aphid diet and were incubated at about 23±1° C. and about 50±5% relative humidity for 3 days. Aphid mortality and fecundity was then visually assessed.

[3] = system: Bemisia Argentifolii; assay: Silverleaf whitefly (Bemisia argentifolii) cotton plant spray test; details: 72 h, sprayed cotton plants, whitefly adults, 3 days after treatment, read-out: mortality in comparison with untreated controls
Source text: The active compounds were formulated in cyclohexanone as a 10,000 ppm solution supplied in tubes. The tubes were inserted into an automated electrostatic sprayer equipped with an atomizing nozzle and they served as stock solutions for which lower dilutions were made in 50% acetone:50% water (v/v). A nonionic surfactant (Kinetic®) was included in the solution at a volume of 0.01% (v/v).
Cotton plants at the cotyledon stage (one plant per pot) were sprayed by an automated electrostatic plant sprayer equipped with an atomizing spray nozzle. The plants were dried in the sprayer fume hood and then removed from the sprayer. Each pot was placed into a plastic cup and about 10 to 12 whitefly adults (approximately 3-5 days old) were introduced. The insects were collected using an aspirator and a nontoxic Tygon® tubing connected to a barrier pipette tip. The tip, containing the collected insects, were gently inserted into the soil containing the treated plant, allowing insects to crawl out of the tip to reach the foliage for feeding. Cups were covered with a reusable screened lid. Test plants were maintained in a growth room at about 25° C. and about 20-40% relative humidity for 3 days, avoiding direct exposure to fluorescent light (24 hour photoperiod) to prevent trapping of heat inside the cup. Mortality was assessed 3 days after treatment, compared to untreated control plants.

[4] = system: Megoura viciae; assay: Vetch aphid (Megoura viciae) leaf disk test, contact or systemic; details: foliar, 120 h, sprayed broad bean leaf disks, adult aphids, 5 days, read-out: mortality in comparison with untreated controls
Method: For evaluating control of vetch aphid (Megoura viciae) through contact or systemic means the test unit consisted of 24-well-microtiter plates containing broad bean leaf disks.
The compounds were formulated using a solution containing 75% v/v water and 25% v/v DMSO. Different concentrations of formulated compounds were sprayed onto the leaf disks at 2.5 μl, using a custom built micro atomizer, at two replications.
After application, the leaf disks were air-dried and 5-8 adult aphids were placed on the leaf disks inside the microtiter plate wells. The aphids were then allowed to suck on the treated leaf disks and were incubated at about 23±1° C. and about 50±5% relative humidity for 5 days. Aphid mortality and fecundity were then visually assessed.

[5] = system: Heliothis virescens; assay: Tobacco budworm (Heliothis virescens) insect diet egg/larval test; details: 120 h, sprayed onto insect diet with eggs, egg and larval mortality, 5 days, read-out: mortality in comparison with untreated controls
Method: For evaluating control of tobacco budworm (Heliothis virescens) the test unit consists of 96-well-microtiter plates containing an insect diet and 15-25 H. virescens eggs.
The compounds were formulated using a solution containing 75% v/v water and 25% v/v DMSO. Different concentrations of formulated compounds were sprayed onto the insect diet at 10 μl, using a custom built micro atomizer, at two replications.
After application, microtiter plates were incubated at about 28±1° C. and about 80±5% relative humidity for 5 days. Egg and larval mortality was then visually assessed.

Row | Structure (SMILES) | mortality at 100 ppm [1] [%] | mortality at 800 ppm [2] [%] | mortality at 300 ppm [3] [%] | mortality at 800 ppm [4] [%] | mortality at 800 ppm [5] [%]
1 | CCN(C1=NCCS1)c1cnc(-c2cccnc2)s1 [C.1, N-(4,5-dihydrothiazol-2-yl)-N-ethyl-2-(3-pyridyl)thiazol-5-amine] | ≥ 75 | ≥ 75 | ≥ 75 | ≥ 75 | –
2 | CCN(C1=NCCS1)c1sc(-c2cccnc2)nc1Cl [C.3, 4-chloro-N-(4,5-dihydrothiazol-2-yl)-N-ethyl-2-(3-pyridyl)thiazol-5-amine] | ≥ 75 | – | – | ≥ 75 | –
3 | CCN(C1=NCCO1)c1sc(-c2cccnc2)nc1Cl [C.4, N-[4-chloro-2-(3-pyridyl)thiazol-5-yl]-N-ethyl-4,5-dihydrooxazol-2-amine] | ≥ 75 | ≥ 75 | ≥ 75 | ≥ 75 | –
4 | [O-][S+](c1ncccn1)c1cnc(-c2cccnc2)s1 (centres unmarked) [C.11, 2-(3-Pyridyl)-5-pyrimidin-2-ylsulfinyl-thiazole] | – | – | – | – | ≥ 75
